Measurements as given in patent publication US5208227A, “Method, compositions, and compounds for modulating brain excitability” (priority 1991, dated 1993).
Read-outs that look alike come from different tables or passages of the source.

How the values were obtained:
[1] = system: GABA/benzodiazepine receptor-chloride ionopore complex (GBR complex); test: modulation (inhibition) of [35S]TBPS binding; design: species or system rat (male Sprague-Dawley); MAXIMAL INHIBITION: unit not given here; settings: for MAXIMAL INHIBITION: [35S]TBPS binding; for MAXIMAL INHIBITION / CONTROL IC50 / IC50 / +5 μM GABA IC50: rat cerebral cortex; for CONTROL IC50 / IC50 / +5 μM GABA IC50: inhibition of 2 nM [35S]TBPS binding
Method: These procedures were performed as follows:
In these FIGS, (.circle.) represents control without bicuculline; represents 0.5 micromolar bicuculline; (.quadrature.) represents 1.0 micromolar bicuculline; represents 2.0 micromolar bicuculline; and (Δ) represents 3.0 micromolar bicuculline.

progesterone receptor = molecular target: T1, progesterone receptor (Rattus norvegicus, UniProt Q63449); test: [3H]R5020 binding to the progesterone receptor in rat uterus; settings: FIG. 5
T1 sequence (Q63449 1-923): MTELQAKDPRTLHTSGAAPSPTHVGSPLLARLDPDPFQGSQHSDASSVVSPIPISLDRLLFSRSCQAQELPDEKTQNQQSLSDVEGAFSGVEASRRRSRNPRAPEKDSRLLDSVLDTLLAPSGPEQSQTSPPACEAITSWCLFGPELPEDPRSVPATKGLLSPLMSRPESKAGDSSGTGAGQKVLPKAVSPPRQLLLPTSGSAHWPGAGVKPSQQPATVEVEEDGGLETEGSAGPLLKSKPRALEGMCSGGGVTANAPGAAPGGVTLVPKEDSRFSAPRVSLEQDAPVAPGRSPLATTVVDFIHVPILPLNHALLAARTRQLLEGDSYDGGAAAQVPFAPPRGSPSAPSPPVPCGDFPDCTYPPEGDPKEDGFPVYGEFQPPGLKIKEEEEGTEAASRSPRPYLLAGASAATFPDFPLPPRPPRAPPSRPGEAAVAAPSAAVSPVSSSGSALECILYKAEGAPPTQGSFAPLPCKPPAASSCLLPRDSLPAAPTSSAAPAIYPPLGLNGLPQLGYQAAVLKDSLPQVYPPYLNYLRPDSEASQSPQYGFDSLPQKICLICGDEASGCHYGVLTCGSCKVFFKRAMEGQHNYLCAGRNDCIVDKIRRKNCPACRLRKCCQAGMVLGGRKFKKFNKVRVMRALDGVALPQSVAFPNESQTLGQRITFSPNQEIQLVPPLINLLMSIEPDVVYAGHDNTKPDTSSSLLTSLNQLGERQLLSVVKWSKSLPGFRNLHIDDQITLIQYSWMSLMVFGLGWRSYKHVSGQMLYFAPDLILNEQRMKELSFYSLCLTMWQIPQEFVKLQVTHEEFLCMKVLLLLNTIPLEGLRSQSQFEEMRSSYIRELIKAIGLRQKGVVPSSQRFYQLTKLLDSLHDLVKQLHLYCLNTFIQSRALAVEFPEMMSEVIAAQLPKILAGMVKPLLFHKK
Text: The data plotted in FIG. 5 were obtained by performing assays in accordance with the procedures outlined above to determine the effect of progesterone metabolites and the progestin R5020 on the binding of [^3 H]R5020 to the progesterone receptor in rat uterus. All points on the plot of FIG. 5 represent the mean of triplicate determinations. The following compounds are those listed in FIG. 5: 5-alpha-pregnan-3-alpha-ol-20-one (DHP), 5-alpha-pregnan-3-alpha,21-diol-20-one (Th-DOC), and 5-beta-pregnane-3-alpha,20 diol (5 BETA).

[2] = system: (+)bicuculline-induced seizures in mice; design: key: NP: no protection; settings: cited from earlier work
mice [3] = settings: literature data; cited from earlier work
[4] = system: metrazol-induced convulsions in mice; design: key: NP: no protection; settings: cited from earlier work
[5] = system: strychnine-induced convulsions in mice; design: key to STR (strychnine) ED50: NP: no protection; settings: cited from earlier work
mice [6] = system: mice; design: unit not given beside the values; settings: literature data; cited from earlier work
[7] = system: picrotoxin-induced convulsions in mice; design: key: NP: no protection; settings: cited from earlier work
[8] = system: maximal electroshock (tonic component) in mice; design: unit not given here; settings: literature data; cited from earlier work
[9] = system: GBR complex ([35S]TBPS site); test: dissociation kinetics of [35S]TBPS in cortical P2 homogenates; format: binding, rat
Method: An assay was performed to determine the effect of pentobarbital on the dissociation kinetics of [^35 S]TBPS in rat cerebral cortical membranes. This assay was performed in accordance with the procedures outlined above. […] Dissociation of bound [^35 S]TBPS was initiated by 2 micromolar TBPS in all cases.

[10] = system: premenstrual syndrome (PMS), PND, catamenial epilepsy patients; settings: cited from earlier work
[11] = read-out: +5 μM GABA IC50, +5 μM GABA
[12] = no added GABA (control), read-out: CONTROL IC50
[13] = chemical convulsant administered i.v., Worms et al.

With C[C@]12C[C@H](O)[C@H]3[C@@H](CCC4=CC(=O)CC[C@@]43C)[C@@H]1CC[C@@H]2C(=O)CO [4-PREGNEN-11β,21- DIOL-3,20-DIONE] the “MAXIMAL INHIBITION” value [1] was 21, the “CONTROL IC50” value ([1]; no added GABA (control)) was “INACTIVE” and the IC50 [1, 11] was greater than 100 µM.
For CC(=O)[C@H]1CC[C@H]2[C@@H]3CC=C4C[C@@H](O)CC[C@]4(C)[C@H]3CC[C@]12C [5-PREGNAN-3β-OL- 20-ONE (PREGNENOLONE), 5-PREGNAN-3β-OL- 20-ONE], the “MAXIMAL INHIBITION” value [1] was 30, the “CONTROL IC50” value ([1]; no added GABA (control)) was “INACTIVE” and the IC50 [1, 11] was greater than 100 µM.
With C[C@]12CC[C@@H](O)C[C@@H]1CC[C@@H]1[C@@H]2CC[C@]2(C)[C@@H](C(=O)CO)CC[C@@H]12 [5-alpha-pregnan-3-alpha,21-diol-20-one] the “affinity for the progesterone receptor” value (progesterone receptor) was “lack of affinity”.
In the case of CC(O)[C@H]1CC[C@H]2[C@@H]3CC[C@@H]4C[C@H](O)CC[C@]4(C)[C@H]3CC[C@]12C (stereo partly drawn) [5-beta-pregnane-3-alpha,20 diol (5 BETA), 5-beta-pregnane-3-alpha,20 diol], the “affinity for the progesterone receptor” value (progesterone receptor) is reported as “lack of affinity”.
With C[C@]12CC[C@@H](O)C[C@@H]1CC[C@@H]1[C@@H]2CC[C@]2(C)[C@@H](O)CC[C@@H]12 [5α-ANDROSTAN-3α, 17β-DIOL] the “MAXIMAL INHIBITION” value [1] was 100.
In the case of C[C@]12CCC(=O)C[C@@H]1CC[C@@H]1[C@@H]2CC[C@]2(C)[C@@H](O)CC[C@@H]12 [5α-ANDROSTAN-17β- OL-3-ONE], the “MAXIMAL INHIBITION” value [1] is reported as 52 and the IC50 [1, 12] is reported as greater than 100 µM.
With CC(O)[C@H]1CC[C@H]2[C@@H]3CC[C@H]4C[C@H](O)CC[C@]4(C)[C@H]3CC[C@]12C (stereo partly drawn) [5α-PREGNAN-3α,20- DIOL ([…]), 5α-PREGNAN-3α,20- DIOL] the “MAXIMAL INHIBITION” value [1] was 52, the IC50 [1, 12] was 0.359 µM and the IC50 [1, 11] was 0.082 µM.
Compound C[C@]12CC[C@@H](O)C[C@@H]1CC[C@H]1[C@@H]3CC[C@H](C(=O)CO)[C@@]3(C)CC(=O)[C@@H]12 [5α-PREGNAN-3α-21- DIOL-11,20-DIONE] has an IC50 [1, 12] greater than 100 µM.
With CC(=O)[C@H]1CC[C@H]2[C@@H]3CC[C@H]4C[C@@H](O)CC[C@]4(C)[C@H]3CC[C@]12C [5α-PREGNAN-3β-OL- 20-ONE] the “MAXIMAL INHIBITION” value [1] was 33, the “CONTROL IC50” value ([1]; no added GABA (control)) was “INACTIVE” and the IC50 [1, 11] was greater than 100 µM.
With C[C@]12CC[C@@H]3c4ccc(O)cc4CC[C@H]3[C@@H]1CC[C@@H]2O [17β-ESTRADIOL] the “MAXIMAL INHIBITION” value [1] was 0, the “+5 μM GABA IC50” value ([1]; +5 μM GABA) was “INACTIVE” and the “CONTROL IC50” value ([1]; no added GABA (control)) was “INACTIVE”.
With CC(C)CCC[C@@H](C)[C@H]1CC[C@H]2[C@@H]3CC=C4C[C@@H](O)CC[C@]4(C)[C@H]3CC[C@]12C [CHOLESTEROL] the “MAXIMAL INHIBITION” value [1] was 0, the “+5 μM GABA IC50” value ([1]; +5 μM GABA) was “INACTIVE” and the “CONTROL IC50” value ([1]; no added GABA (control)) was “INACTIVE”.
In the case of O=C1CN=C(c2ccccc2Cl)c2cc([N+](=O)[O-])ccc2N1 [Clonazepam], the “BIC (bicuculline) ED50” value ([2]; Swinyard & Woodhead) is given as 0.0086, the “Rotorod (RR) ED50” value (mice [3]) is given as 0.184 and the “MTZ (metrazol) ED50” value ([4]; Swinyard & Woodhead) is given as 0.009. For the same compound, the “STR (strychnine) ED50” value ([5]; Swinyard & Woodhead) was “NP”, the LD50 (mice [6]) was greater than 6000 and the “PICRO (picrotoxin) ED50” value ([7]; Swinyard & Woodhead) was 0.043. For the same compound, the “MES (maximal electroshock) ED50” value [8] was 93.
For NCCCC(=O)O [GABA, gamma-aminobutyric acid], the “shift in dose-response curve for [35S]TBPS binding induced by (+)-bicuculline” value ([1]; (+)-bicuculline 0.5-3.0 micromolar, FIGS. 1A and 1B) was “classical parallel shift”.
For CCCC(C)C1(CC)C(=O)NC(=O)NC1=O (stereo not drawn) [Na pentobarbital], the “Total percentage of specific sites, rapidly dissociating (R)” value ([9]; (**P < 0.01 vs control), alphaxalone 300 nM, 3a-OH-DHP 20 nM) was 48 ± 6 percentage, the “Total percentage of specific sites, slowly dissociating (S)” value ([9]; (*P < 0.05 vs control), alphaxalone 300 nM, 3a-OH-DHP 20 nM) was 61 ± 6 percentage and the “k-1, rapidly dissociating component (R)” value ([9]; [35S]TBPS dissociation, alphaxalone 300 nM, 3a-OH-DHP 20 nM) was 0.158 min⁻¹. For the same compound, the “k-1, slowly dissociating component (S)” value ([9]; [35S]TBPS dissociation, pentobarbital 30 nM [sic], alphaxalone 300 nM, 3a-OH-DHP 20 nM) was 0.0186 min⁻¹ and the “effect on dissociation mechanism/kinetics of [35S]TBPS (in words)” value ([9]; pentobarbital 30 micromolar, alphaxalone 300 nanomolar, 5-alpha-pregnan-3-alpha-hydroxy-20-one 20 nanomolar) was “induces a biphasic dissociation mechanism”.
With CC(=O)[C@H]1CC[C@H]2[C@@H]3CCC4=CC(=O)CC[C@]4(C)[C@H]3CC[C@]12C [PROGESTERONE] the “MAXIMAL INHIBITION” value [1] was 100, the “potency/efficacy/affinity at the GBR complex (in words)” value ([1]; in vitro) was “very low potency” and the IC50 [1, 12] was greater than 100 µM. The “dose-response relationship in the treatment of PMS” value ([10]; Maddocks et al.) was “no dose-response relationship exists” and the “clinical effectiveness in PMS, PND, catamenial epilepsy” value ([10]; literature) was “not consistently effective”.
For CCC1(c2ccccc2)C(=O)NC(=O)NC1=O [Phenobarbital], the “BIC (bicuculline) ED50” value ([2]; Swinyard & Woodhead) is given as 38, the “Rotorod (RR) ED50” value (mice [3]) is given as 69 and the “MTZ (metrazol) ED50” value ([4]; Swinyard & Woodhead) is given as 13. The “STR (strychnine) ED50” value ([5]; Swinyard & Woodhead) was 95, the LD50 (mice [6]) was 265 and the “PICRO (picrotoxin) ED50” value ([7]; Swinyard & Woodhead) was 28. For the same compound, the “MES (maximal electroshock) ED50” value [8] was 22.
In the case of O=C1NC(=O)C(c2ccccc2)(c2ccccc2)N1 [Phenytoin], the “BIC (bicuculline) ED50” value ([2]; Swinyard & Woodhead) is given as “NP”, the “MTZ (metrazol) ED50” value ([4]; Swinyard & Woodhead) is given as “NP” and the “Maximum protection (strychnine)” value ([5]; at 55-100 mg/kg) is given as 50%. The LD50 (mice [6]) was 230 and the “PICRO (picrotoxin) ED50” value ([7]; Swinyard & Woodhead) was “NP”.
For NC(=O)CCC/N=C(\c1ccc(Cl)cc1)c1cc(F)ccc1O [Progabide], the “BIC (bicuculline) ED50” value [2, 13] is given as 30, the “MTZ (metrazol) ED50” value [4, 13] is given as 30 and the “STR (strychnine) ED50” value [5, 13] is given as 75. For the same compound, the LD50 (mice [6]) was 3000, the “PICRO (picrotoxin) ED50” value [7, 13] was 105 and the “MES (maximal electroshock) ED50” value [8] was 75.
In the case of CCCC(CCC)C(=O)O [Valproate], the “BIC (bicuculline) ED50” value ([2]; Swinyard & Woodhead) is listed as 360, the “MTZ (metrazol) ED50” value ([4]; Swinyard & Woodhead) is listed as 149 and the “STR (strychnine) ED50” value ([5]; Swinyard & Woodhead) is listed as 293. The LD50 (mice [6]) was 1105, the “PICRO (picrotoxin) ED50” value ([7]; Swinyard & Woodhead) was 387 and the “MES (maximal electroshock) ED50” value [8] was 272.
